Data: PMC10945559, “Forgotten Natural Products: Semisynthetic Development of Blasticidin S As an Antibiotic Lead” (ACS Medicinal Chemistry Letters, 2024)
Values after ≈ are worked out from the molar mass of the structure shown. Like-named read-outs stand apart in the source and are kept apart here. Marks after values point to notes of the source that are not given here.

Columns and labels:
[1] = tested on: S. aureus 8810; assay: Broth microdilution antibacterial assay; type: cell-based, Staphylococcus aureus; conditions: for Selectivity index (CC50/IC50): MRC-5 CC50 / S. aureus IC50
Procedure: (§1) Antibacterial Assay Procedure
(§2) Broth Microdilution Assays
(§3) Media and solutions were autoclaved or sterile filtered prior to use and manipulations were carried out in a laminar flow hood. Antibacterial testing was performed in polypropylene 96 -well flat bottom plates. The minimal inhibitory concentration of blasticidin S ( 1) hydrochloride, P10 (2), and derivatives 15–22 were assessed against Staphylococcus aureus ΔNorA, S. aureus 8810, methicillin-resistant S. aureus (MRSA) ATCC 43300, Enterococcus faecalis ATCC 29212, vancomycin-resistant Enterococcus, Klebsiella pneumoniae ATCC 29665, Pseudomonas aeruginosa, and Acinetobacter baumannii ATCC 17978 using serial dilutions. Doxycycline (Gold Bio) as a positive control and the vehicle as a negative control. Stock solutions of each compound were prepared at 5.12 mg/mL in 50% DMSO/water and serially diluted in 50% DMSO/water to create master plates. From the master plates, 10 μL of each dilution was applied to test plates using a Bravo automated liquid transfer system (Agilent). Bacteria previously grown overnight (37 °C, 120 – 200 RPM), in LB broth were diluted to an OD600 of 0.0 5 in cation-adjusted Mueller-Hinton broth, grown to an OD600 of ~0.5, and diluted to an OD600 of 0.004 in cation-adjusted Mueller-Hinton broth. These diluted cultures were applied to the test plates (190 μL per test well) resulting in final concentrations of the test compounds of 256–2 μg/mL. Growth controls (wells with inoculated media but no vehicle or test compounds) were included to assess any potential toxicity from the vehicle. The plates were incubated at 37 °C for 16–18 h, except for VRE and E. faecalis, which were incubated at 37 °C for 24 h. Inhibition was determined by measuring the optical density at 600 nm (OD600) with a Cytation 3 plate reader (BioTek). The optical density measurements were normalized to the positive and negative controls and the vehicle and growth controls were compared and found to be indistinguishable, indicating no toxicity from the vehicle used. The MIC was the lowest concentration that inhibited >90% of growth. Two biological replicates were performed in duplicate. MIC values are reported […]
(§4) as a range from biological replicates. Inhibition curves were generated using Prism (GraphPad).
(§5) The IC50 values reported in Table 2 are the average of the two biological replicates ± standard […]
(§6) Cytotoxicity Assay Procedure
(§7) Human lung fibroblast cells, MRC -5 (CCL-171), were cultured at 37℃ with 5% CO2 and were plated at 5000 cells/well in a 96 -well plate. Compounds 1, 2, and 15-22 were initially prepared at concentrations of 5.12 mg/mL in a vehicle of 50% DMSO. Dilutions of the compounds (4 – 512 μg/mL) were then prepared in growth medium containing Dulbecco’s modified Eagle’s medium (DMEM) with high glucose, L -glutamine, and sodium pyruvate supplemented with 10% fetal bovine serum (FBS), 1% non -essential amino acids, and 0.1% gentamicin sulfate, and 25mM HEPES. The vehicle (50% DMSO) was also prepared via the sa me dilution series to serve as a control. Growth media was removed from the cells and replaced with the same volume of each compound dilution. Cells were incubated for 24 h , after which CellTiter 96® AQueous One Solution Reagent was added to each well as recommended by the manufacturer’s protocol (Promega CellTiter 96 AQueous One Solution Cell Proliferation Assay) and further incubated for 4 h. After incubation, absorbance was measured at 490 nm on an Infinite M plex multimode microplate reader with i -control Tecan software. Viability was calculated by subtracting media only absorbance values and normalizing to the vehicle control at each concentration. The presented data is one assay performed in triplicate that is representative of multiple trials. Data for the 256 and 512 μg/mL concentrations were removed from analysis due to vehicle toxicity […]
(§8) CC50 concentrations were determined via the ED50 Plus v1.0 software (https://archive.org/details/ed50v10_zip).

[2] = tested on: methicillin-resistant S. aureus (MRSA) ATCC 43300; assay: Broth microdilution antibacterial assay; type: cell-based, Staphylococcus aureus; conditions: for Selectivity index (CC50/IC50): MRC-5 CC50 / MRSA IC50; for IC50 / MIC: Staphylococcus aureus
Procedure: as §1, §2, §3, §4, §5, §6, §7, §8

[3] = tested on: vancomycin-resistant Enterococcus (VRE); assay: Broth microdilution antibacterial assay; type: cell-based; conditions: for IC50 / MIC: Enterococcus, VRE; for Selectivity index (CC50/IC50): MRC-5 CC50 / VRE IC50
Procedure: as §1, §2, §3, §4, §5, §6, §7, §8

[4] = tested on: Staphylococcus aureus ΔNorA; assay: Broth microdilution antibacterial assay; type: cell-based; conditions: for Selectivity index (CC50/IC50): MRC-5 CC50 / S. aureus ΔNorA IC50; for IC50 / MIC: Staphylococcus aureus
Procedure: as §1, §2, §3, §4, §5, §6, §7, §8

[5] = tested on: Pseudomonas aeruginosa; assay: Broth microdilution antibacterial assay; type: cell-based; conditions: for Selectivity index (CC50/IC50): MRC-5 CC50 / P. aeruginosa IC50; for IC50 / MIC: Pseudomonas aeruginosa
Procedure: as §1, §2, §3, §4, §5, §6, §7, §8

[6] = tested on: Enterococcus faecalis ATCC 29212; assay: Broth microdilution antibacterial assay; type: cell-based; conditions: for IC50 / MIC: Enterococcus faecalis; for Selectivity index (CC50/IC50): MRC-5 CC50 / E. faecalis IC50
Procedure: as §1, §2, §3, §4, §5, §6, §7, §8

[7] = tested on: Acinetobacter baumannii ATCC 17978; assay: Broth microdilution antibacterial assay; type: cell-based; conditions: for IC50 / MIC: Acinetobacter baumannii, ATCC17978; for Selectivity index (CC50/IC50): MRC-5 CC50 / A. baumannii IC50
Procedure: as §1, §2, §3, §4, §5, §6, §7, §8

[8] = tested on: Klebsiella pneumoniae ATCC 29665; assay: Broth microdilution antibacterial assay; type: cell-based; conditions: for IC50 / MIC: Klebsiella pneumoniae, ATCC29665; for Selectivity index (CC50/IC50): MRC-5 CC50 / K. pneumoniae IC50
Procedure: as §1, §2, §3, §4, §5, §6, §7, §8

[9] = in vitro; type: cell-based, human; conditions: human; MRC-5 (lung fibroblast); 24 h; one biological replicate (n = 3); read-out: CC50 for human cells
Procedure: as §4, §5, §6, §7, §8
Figure S41. The effect of compounds on cell viability. The lines represent non -linear regression curves, and error bars represent means ± […]
SD (n=3). […]

[10] = Staphylococcus aureus, 8810, S. aureus, average of two biological replicates ± S.D., read-out: IC50
[11] = Staphylococcus aureus, 8810, S. aureus, lowest concentration inhibiting >90% of growth, range from biological replicates, read-out: MIC
[12] = Staphylococcus aureus, 8810, average MIC, Table S3, read-out: Average Activity against S. aureus
[13] = MRSA, average of two biological replicates ± S.D., read-out: IC50
[14] = MRSA, lowest concentration inhibiting >90% of growth, range from biological replicates, read-out: MIC
[15] = average MIC, Table S3, read-out: Average Activity against MRSA
[16] = average MIC, Table S3, read-out: Average Activity against VRE
[17] = average of two biological replicates ± S.D., read-out: IC50
[18] = P. aeruginosa, average of two biological replicates ± S.D., read-out: IC50
[19] = ATCC29212, E. faecalis, 24 h, lowest concentration inhibiting >90% of growth, range from biological replicates, read-out: MIC
[20] = ATCC29212, E. faecalis, average of two biological replicates ± S.D. (18: one biological replicate), read-out: IC50
[21] = ATCC29212, average MIC, Table S3, read-out: Average Activity against E. faecalis
[22] = A. baumannii, average of two biological replicates ± S.D., read-out: IC50
[23] = A. baumannii, lowest concentration inhibiting >90% of growth, range from biological replicates, read-out: MIC
[24] = K. pneumoniae, average of two biological replicates ± S.D., read-out: IC50
[25] = K. pneumoniae, lowest concentration inhibiting >90% of growth, range from biological replicates, read-out: MIC

Structure (SMILES)	Selectivity index (CC50/IC50) [1]	Selectivity index (CC50/IC50) [2]	MIC ([3]; 24 h)	Selectivity index (CC50/IC50) [3]	Selectivity index (CC50/IC50) [4]	IC50 [4]	MIC [4]	Selectivity index (CC50/IC50) [5]	MIC [5]	Selectivity index (CC50/IC50) [6]	Selectivity index (CC50/IC50) [7]	Selectivity index (CC50/IC50) [8]	CC50 at 24 h [9]	IC50 [1, 10]	MIC [1, 11]	MIC [1, 12]	IC50 [2, 13]	MIC [2, 14]	MIC [2, 15]	MIC [3, 16]	further results
CCCNC(=O)[C@H]1O[C@@H](n2ccc(N)nc2=O)C=C[C@@H]1NC(=O)C[C@@H](N)CCN(C)C(=N)N [Compound 17]	16	8.1	64 µg/mL (≈ 138 µM)	3.6	3.9	15.8 ± 1.1 µg/mL (≈ 34.1 µM)	64 to 128 µg/mL (≈ 138 to 276 µM)	3.2	64 µg/mL (≈ 138 µM)	6.6	1.6	1.4	61.1 µg/mL (≈ 132 µM)								IC50 ([1]; Staphylococcus aureus, 8810): 3.9 ± 0.1 µg/mL (≈ 8.41 µM); MIC ([1]; Staphylococcus aureus, 8810): 16 to 32 µg/mL (≈ 34.5 to 69 µM); MIC ([1]; Staphylococcus aureus, 8810, read-out: Average Activity against S. aureus): 24 µg/mL (≈ 51.8 µM); IC50 [2]: 7.6 ± 0.8 µg/mL (≈ 16.4 µM); MIC [2]: 16 to 32 µg/mL (≈ 34.5 to 69 µM); MIC ([2]; read-out: Average Activity against MRSA): 24 µg/mL (≈ 51.8 µM); IC50 [3]: 16.8 ± 3.1 µg/mL (≈ 36.2 µM); MIC ([3]; read-out: Average Activity against VRE): 64 µg/mL (≈ 138 µM); IC50 [5]: 19.3 ± 1.6 µg/mL (≈ 41.6 µM); IC50 ([6]; ATCC29212): 9.3 ± 1.7 µg/mL (≈ 20.1 µM); MIC ([6]; ATCC29212, 24 h): 16 to 32 µg/mL (≈ 34.5 to 69 µM); MIC ([6]; ATCC29212, read-out: Average Activity against E. faecalis): 16 µg/mL (≈ 34.5 µM); IC50 [7]: 39.3 ± 1.9 µg/mL (≈ 84.8 µM); MIC [7]: > 256 µg/mL; IC50 [8]: 44.9 ± 3.2 µg/mL (≈ 96.9 µM); MIC [8]: 128 to 256 µg/mL (≈ 276 to 552 µM)
CN(C)C(=O)[C@H]1O[C@@H](n2ccc(N)nc2=O)C=C[C@@H]1NC(=O)C[C@@H](N)CCN(C)C(=N)N [Compound 18]	9.1	5.0	64 to 128 µg/mL (≈ 142 to 285 µM)	2.3	3.5	18.3 ± 1.4 µg/mL (≈ 40.7 µM)	128 µg/mL (≈ 285 µM)	3.4	64 to 128 µg/mL (≈ 142 to 285 µM)	3.7 ^b	1.4	1.1	63.9 µg/mL (≈ 142 µM)	7 ± 1.5 µg/mL (≈ 15.6 µM)	64 µg/mL (≈ 142 µM)	64 µg/mL (≈ 142 µM)	12.8 ± 1.9 µg/mL (≈ 28.5 µM)	32 µg/mL (≈ 71.2 µM)	32 µg/mL (≈ 71.2 µM)	96 µg/mL (≈ 214 µM)	IC50 [3, 17]: 27.7 ± 11 µg/mL (≈ 61.6 µM); IC50 [5, 18]: 18.8 ± 2.6 µg/mL (≈ 41.8 µM); MIC [6, 19]: 16 to 32 µg/mL (≈ 35.6 to 71.2 µM); IC50 [6, 20]: 17 µg/mL (≈ 37.8 µM); MIC [6, 21]: 32 µg/mL (≈ 71.2 µM); IC50 [7, 22]: 46.4 ± 7 µg/mL (≈ 103 µM); MIC [7, 23]: 256 µg/mL (≈ 570 µM); IC50 [8, 24]: 60.1 ± 4.7 µg/mL (≈ 134 µM); MIC [8, 25]: 256 µg/mL (≈ 570 µM)
C#CCNC(=O)[C@H]1O[C@@H](n2ccc(N)nc2=O)C=C[C@@H]1NC(=O)C[C@@H](N)CCN(C)C(=N)N [Compound 19]	9.2	4.8		1.6	2.0	16.2 ± 0.9 µg/mL (≈ 35.3 µM)	64 to 128 µg/mL (≈ 139 to 279 µM)	2.1		4.4	1.6	0.8	33.1 µg/mL (≈ 72 µM)	3.6 ± 0.3 µg/mL (≈ 7.83 µM)	32 µg/mL (≈ 69.6 µM)	32 µg/mL (≈ 69.6 µM)	6.9 ± 1.2 µg/mL (≈ 15 µM)	16 to 32 µg/mL (≈ 34.8 to 69.6 µM)	24 µg/mL (≈ 52.2 µM)	64 µg/mL (≈ 139 µM)	MIC ([3]; 24 h, lowest concentration inhibiting >90% of growth, range from biological replicates, read-out: MIC): 64 µg/mL (≈ 139 µM); IC50 [3, 17]: 21.1 ± 4.8 µg/mL (≈ 45.9 µM); IC50 [5, 18]: 16.1 ± 0.9 µg/mL (≈ 35 µM); MIC ([5]; P. aeruginosa, lowest concentration inhibiting >90% of growth, range from biological replicates, read-out: MIC): 64 µg/mL (≈ 139 µM); MIC [6, 19]: 16 to 32 µg/mL (≈ 34.8 to 69.6 µM); IC50 [6, 20]: 7.6 ± 1.5 µg/mL (≈ 16.5 µM); MIC [6, 21]: 16 µg/mL (≈ 34.8 µM); IC50 [7, 22]: 21.1 ± 3.9 µg/mL (≈ 45.9 µM); MIC [7, 23]: 128 µg/mL (≈ 279 µM); IC50 [8, 24]: 40.4 ± 6.2 µg/mL (≈ 87.9 µM); MIC [8, 25]: 128 µg/mL (≈ 279 µM)
